Data set [1] concerns the target hD2R (human D2LR) (Homo sapiens, UniProt P14416). Kind of data set: Radioligand competition binding at hD2R with [3H]-N-methylspiperone. Background: In a radioligand displacement assay an active substance lowers the binding of a labelled ligand.
The target in data set [2] is MOR (SNAP-mMOR) (Mus musculus, UniProt P42866). As to the kind of experiment: BRET antagonism at MOR using GPA in the presence of 100 nM DAMGO. Type of data set: cell-based.
In data set [3] the target is hD3R (Homo sapiens, UniProt P35462). As to the kind of experiment: Radioligand competition binding at hD3R with [3H]-N-methylspiperone.
For data set [4] the following is noted: dogs; cited from earlier work.

hD3R, sequence (P35462 whole entry): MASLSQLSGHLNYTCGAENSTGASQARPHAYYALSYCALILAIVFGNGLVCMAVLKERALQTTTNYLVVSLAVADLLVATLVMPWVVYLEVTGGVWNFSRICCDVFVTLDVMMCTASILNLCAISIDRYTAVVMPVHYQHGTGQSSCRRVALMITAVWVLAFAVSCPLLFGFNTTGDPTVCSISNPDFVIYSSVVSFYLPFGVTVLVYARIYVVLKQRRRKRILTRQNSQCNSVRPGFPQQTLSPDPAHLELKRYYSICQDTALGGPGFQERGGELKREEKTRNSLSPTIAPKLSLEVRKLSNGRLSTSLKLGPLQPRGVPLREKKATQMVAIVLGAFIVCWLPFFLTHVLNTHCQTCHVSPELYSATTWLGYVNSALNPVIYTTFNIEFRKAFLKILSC
MOR (SNAP-mMOR), sequence (P42866 whole entry): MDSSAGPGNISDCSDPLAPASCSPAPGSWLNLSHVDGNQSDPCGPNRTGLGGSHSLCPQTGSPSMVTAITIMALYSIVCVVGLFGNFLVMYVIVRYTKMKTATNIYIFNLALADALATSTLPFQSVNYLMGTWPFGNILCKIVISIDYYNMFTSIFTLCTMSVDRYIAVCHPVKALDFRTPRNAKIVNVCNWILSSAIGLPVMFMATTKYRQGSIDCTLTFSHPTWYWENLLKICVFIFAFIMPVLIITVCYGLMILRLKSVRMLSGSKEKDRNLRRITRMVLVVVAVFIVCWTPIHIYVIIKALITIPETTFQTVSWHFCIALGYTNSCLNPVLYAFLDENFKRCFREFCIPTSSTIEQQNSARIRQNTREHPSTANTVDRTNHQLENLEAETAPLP
hD2R (human D2LR), sequence (P14416 whole entry): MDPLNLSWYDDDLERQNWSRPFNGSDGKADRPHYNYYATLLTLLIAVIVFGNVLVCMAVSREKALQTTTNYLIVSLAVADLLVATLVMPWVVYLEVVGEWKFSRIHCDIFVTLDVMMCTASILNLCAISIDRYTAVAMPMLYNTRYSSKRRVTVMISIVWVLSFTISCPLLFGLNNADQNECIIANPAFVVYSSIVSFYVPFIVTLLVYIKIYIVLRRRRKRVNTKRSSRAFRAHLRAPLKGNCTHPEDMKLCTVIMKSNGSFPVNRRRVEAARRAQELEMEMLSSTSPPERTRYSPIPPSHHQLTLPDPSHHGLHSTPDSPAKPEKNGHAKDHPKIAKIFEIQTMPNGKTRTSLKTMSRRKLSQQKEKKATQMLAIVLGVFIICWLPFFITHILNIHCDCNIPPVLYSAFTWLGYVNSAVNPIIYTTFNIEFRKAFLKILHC

On to `CCC(=O)C(CC(C)N(C)C)(c1ccccc1)c1ccccc1` (centres unmarked) [compound 6, methadone], for which, in data set [1], the “D2R Ki” value was “completely inactive”.
One may read the IC50 as the point on the concentration scale where inhibition reaches its midpoint. Turning to `CCOC(=O)/C=C1\[C@@H]2CCC[C@@]1(c1cccc(O)c1)CCN2CCCCNC(=O)c1cc2ccccc2[nH]1` [compound 57, trans-Ethyl (Z)-2-((1S,5S)-2-(4-(1H-indole-2-carboxamido)butyl)-5-(3-hydroxyphenyl)-2-azabicyclo[3.3.1]nonan-9-ylidene)acetate], the IC50 in data set [2] was 3520 nM.
For orientation: Ki means a dissociation constant, usually derived from enzyme kinetics or from competition with a known ligand. In data set [3], `CCOC(=O)/C=C1\[C@@H]2CCC[C@@]1(c1cccc(O)c1)CCN2CCN1CCN(c2cccc(Cl)c2Cl)CC1` [compound 65, Ethyl (Z)-2-((1S,5S)-2-(2-(4-(2,3-dichlorophenyl)piperazin-1-yl)ethyl)-5-(3-hydroxyphenyl)-2-azabicyclo[3.3.1]nonan-9-ylidene)acetate] yielded a Ki of 139 nM.
In the case of `O=C(NCCCCN1CC[C@]2(c3cccc(O)c3)CCC[C@H]1[C@H]2O)c1cc2ccccc2[nH]1` [compound 62, N-(4-((1S,5S,9S)-9-Hydroxy-5-(3-hydroxyphenyl)-2-azabicyclo[3.3.1]nonan-2-yl)butyl)-1H-indole-2-carboxamide], in data set [3], affinity was put at a Ki of 79.6 nM.
As for `Cc1ncoc1-c1nnc(SCCCN2C[C@@H]3C[C@]3(c3ccc(C(F)(F)F)cc3F)C2)n1C` [GSK598809], the “potentiation of hypertensive effects of cocaine” value in data set [4] is “potentiation of hypertensive effects observed in dogs produced by cocaine”.

The values are drawn from article PMC9308496 (Journal of medicinal chemistry, 2021).
